Where “and” joins values, the source holds several entries; their conditions need not be identical. Equal values may be shown once.
Legend:
[1] = Cytotoxic effect, WST-1 cell proliferation assay in ORL8 cells; details: human
Text: (§1) Assay systems using OR6 cells (HCV-O strain), 1B-4R cells (HCV-1B-4 strain), and AH1R cells (HCV-AH1R strain) as HuH-7 cell-derived full-length HCV-RNA-replicating cells, and ORL8 cells (HCV-O strain), ORL11 cells (HCV-O strain), 1B-4RL cells (HCV-1B-4 strain), and KAH5RL cells (HCV-KAH5 strain) as Li23 cell-derived full-length HCV-RNA-replicating cells were used for the quantitative analysis of anti-HCV activity and evaluation of a cytotoxic effect in the present invention. The three cell lines, i.e., the 1B-4R cells, the 1B-4RL cells, and the KAH5RL cells have been disclosed in WO 2010/026965 A1. The AH1R cells may be produced with reference to Mori K et al., BBRC, 371:104-109, 2008 and WO 2010/026965 A1. In addition, all the HCV strains belong to genotype 1b.
(§2) In the measurement of the renilla luciferase activity and the measurement by the WST-1 method, experiments were performed in three wells independent of each other, and their means and standard deviation were calculated.
The cytotoxic effects of N-89 and N-251 were examined using ORL8 cells and the CC50 values were calculated. An experimental scale and schedule are the same as those in Example 1.
N-89 and N-251 were added so as to achieve concentrations of 5 μM, a 2-fold dilution series from 5 μM (2.5, 1.3, 0.63, 0.31, 0.16, and 0.08 μM), and 0. The WST-1 cell proliferation assay was performed 72 hours after the culture.
The cytotoxic effect of artemisinin was examined using OR6 and ORL8 cells and the CC50 values were calculated. An experimental scale and schedule are the same as those in Example 1. Artemisinin was added so as to achieve concentrations of 400 μM, a 2-fold dilution series from 400 μM (200, 100, 50, 25, and 13 μM), and 0. The WST-1 cell proliferation assay was performed 72 hours after the culture.

[2] = tested on: HCV-RNA replication in ORL8 cells; assay: Influence of oxidizing agents KNO3 and NaClO4 on anti-HCV activity in ORL8 cells; assay type: cell-based, HCV genotype 1b; details: 10 μM, 72 hours
Description: The effects of addition of KNO3 and NaClO4 on the anti-HCV activity of N-89 were examined using ORL8 cells.
N-89 and KNO3 or NaClO4 were simultaneously added so that the concentrations of N-89 and KNO3 or NaClO4 were set to 0.5 μM and 10 μM, respectively. The luciferase activity was measured 72 hours after the culture.

[3] = tested on: HCV-RNA replication in OR6 cells (HCV-O strain, HuH-7-derived); assay: microbe, parasite or virus in culture
Text: as §1
(§3) As necessary, an increase or decrease in expression level of an HCV protein (core protein) was examined by a Western blot method.
as §2
OR6 cells, which had been cultured in general medium for subculture, were plated onto a 24-well plate (2×10^4 cells in 1 mL of medium for […] cell line per well) and cultured. After 24 hours, N-89 was added so as to achieve concentrations of 20 μM, a 2-fold dilution series from 20 μM (10, 5, 2.5, 1.3, 0.63, and 0.31 μM), and 0, or N-251 was added so as to achieve concentrations of 10 μM, a 2-fold dilution series from 10 μM (5, 2.5, 1.3, 0.63, 0.31, and 0.16 μM), and 0. The renilla luciferase activities were measured 72 hours after the culture. N-89 and N-251 were diluted with DMSO.
(§4) The anti-HCV activity of artemisinin was examined using OR6 cells and ORL8 cells and the EC50 values were calculated. An experimental scale and schedule are the same as those in Example 1.
(§5) Artemisinin was added so as to achieve concentrations of 100 μM, a 2-fold dilution series from 100 μM (50, 25, 13, 6.3, 3.1, and 1.6 μM), and 0. The luciferase activities were measured 72 hours after the culture.

[4] = Cytotoxic effect, WST-1 cell proliferation assay in OR6 cells; details: human
Text: as §1, §2
After 24 hours, N-89 was added so as to achieve concentrations of 20 μM, a 2-fold dilution series from 20 μM (10, 5, 2.5, 1.3, 0.63, and 0.31 μM), and 0, or N-251 was added so as to achieve concentrations of 10 μM, a 2-fold dilution series from 10 μM (5, 2.5, 1.3, 0.63, 0.31, and 0.16 μM), and 0.
The cytotoxic effect of artemisinin was examined using OR6 and ORL8 cells and the CC50 values were calculated. […]

[5] = tested on: HCV-RNA replication in ORL8 cells (HCV-O strain, Li23-derived); assay: microbe, parasite or virus in culture
Text: as §1, §3, §2
The anti-HCV activities of N-89 and N-251 were examined using ORL8 cells and the EC50 values were calculated. An experimental scale and schedule are the same as those in Example 1.
N-89 and N-251 were added so as to achieve concentrations of 5 μM, a 2-fold dilution series from 5 μM (2.5, 1.3, 0.63, 0.31, 0.16, and 0.08 μM), and 0. The luciferase activities were measured 72 hours after the culture.
as §4, §5

[6] = tested on: HCV-RNA replication in ORL8 cells; assay: Effect of antioxidant vitamin E on anti-HCV activity in ORL8 cells (luciferase activity); assay type: cell-based, HCV genotype 1b; details: for canceling of the anti-HCV activity by vitamin E: vitamin E 10 μM
Description: The effect of addition of vitamin E on the anti-HCV activity of N-89 was examined using ORL8 cells. An experimental scale and schedule are the same as those in Example 1.
N-89 and vitamin E were simultaneously added so that the concentrations of N-89 and vitamin E were set to 0.5 μM and 10 μM, respectively. The luciferase activity was measured 72 hours after the culture.
The effect of addition of vitamin E on the anti-HCV activity of N-251 was examined using ORL8 cells. An experimental scale and schedule are the same as those in Example 1.
N-251 and vitamin E were simultaneously added so that the concentrations of N-251 and vitamin E were set to 0.5 μM and 10 μM, respectively. The luciferase activity was measured 72 hours after the culture.
The effect of addition of vitamin E on the anti-HCV activity of artemisinin was examined using ORL8 cells. An experimental scale and schedule are the same as those in Example 1.
Artemisinin and vitamin E were simultaneously added so that the concentrations of artemisinin and vitamin E were set to 100 μM and 10 μM, respectively. The luciferase activity was measured 72 hours after the culture.

[7] = tested on: HuH-7-derived HCV-replicon-replicating cells; details: Paeshuyse J et al., BBRC 2006; cited from earlier work

CC(C)n1c(/C=C/C(O)CC(O)CC(=O)O)c(-c2ccc(F)cc2)c2ccccc21 (centres unmarked) [FLV, Fluvastatin, reference compound]
CC50 at 72 h [1]: 21 µM

O=[N+]([O-])[O-].[K+] [KNO3]
change in luciferase activity, oxidizing agent alone [2]: no change

[Na+].[O-][Cl+3]([O-])([O-])[O-] [NaClO4]
change in luciferase activity, oxidizing agent alone [2]: no change

C[C@@H]1CC[C@H]2[C@@H](C)C(=O)O[C@@H]3O[C@@]4(C)CC[C@@H]1[C@]32OO4 [artemisinin, reference compound]
EC50 ([3]; Hepatitis C virus, OR6, 72 h): 81 µM | anti-HCV activity (judgement) ([3]; OR6 and ORL8 cells): very weak anti-HCV activity | SI (CC50/EC50) ([3]; OR6 cells): 5 | CC50 at 72 h [4]: 380 µM | EC50 ([5]; Hepatitis C virus, ORL8, 72 h): 23 µM | SI (CC50/EC50) ([5]; ORL8 cells): 16 | CC50 at 72 h [1]: 368 µM | luciferase activity, artemisinin in combination with vitamin E ([6]; 100 μM + vitamin E 10 μM, 72 hours): 53% | luciferase activity, artemisinin alone ([6]; 100 μM, 72 hours): 23% | canceling of the anti-HCV activity by vitamin E [6]: not canceled | anti-HCV activity [7]: weak

IFN-α
canceling of the anti-HCV activity by vitamin E [6]: slightly found

vitamin E [reference compound]
luciferase activity, vitamin E alone ([6]; vitamin E 10 μM alone, 72 hours): 217% and 194% | increase of luciferase activity, vitamin E alone ([6]; vitamin E 10 μM alone, 72 hours (Comparative Example 2)): about 3 fold

Reference: patent US9289411B2, “Anti-HCV agent” (NATIONAL UNIVERSITY CORPORATION OKAYAMA UNIVERSITY, priority 2011, dated 2016)
